How the values were obtained:
Plasmodium falciparum [1] = experiment: Antiplasmodial activity against chloroquine-sensitive Plasmodium falciparum NF54 by LDH assay; assay type: functional, organism-based
[2] = Selectivity index, ratio of IC50 for CHO cells to IC50 for chloroquine-sensitive Plasmodium falciparum NF54; assay type: toxicity, cell-based; conditions: hamster; read-out: Ratio IC50
[3] = Resistance index, ratio of IC50 for chloroquine-resistant Plasmodium falciparum Dd2 to IC50 for chloroquine-sensitive Plasmodium falciparum NF54
CHO = experiment: Cytotoxicity against CHO cells by MTT assay; assay type: cell-based; conditions: Cricetulus griseus
Plasmodium falciparum [4] = experiment: Antiplasmodial activity against chloroquine-resistant Plasmodium falciparum Dd2 by LDH assay; assay type: functional, organism-based

| SMILES | IC50 (Plasmodium falciparum [1]) [µM] | also measured |
| --- | --- | --- |
| COCC(COc1cccc2cnccc12)NCc1ccc(F)cc1 (configuration not stated) | 24.4 |  |
| O=c1nc(C(F)(F)F)ccn1CC1CN1Cc1cnc2ccccc2c1 (configuration not stated) | > 27.8 |  |
| OCC(COc1cccc2cnccc12)NCc1ccc(Cl)cc1Cl (configuration not stated) | > 26.5 |  |
| Clc1ccc(CNC(CNc2ccccc2)COc2cccc3cnccc23)cc1 (configuration not stated) | 10.5 |  |
| O=c1c(Cl)c(Cl)cnn1CC(CO)NCc1cnc2ccccc2c1 (configuration not stated) | 15.3 |  |
| O=c1c(Cl)c(Cl)cnn1CC1CN1Cc1cc2ccccc2nc1Cl (configuration not stated) | 22.8 |  |
| COCC(COc1cc(C(F)(F)F)nn1C)NCc1cc2ccccc2nc1OC (configuration not stated) | > 23.6 |  |
| COCC(COc1cc(C(F)(F)F)nn1C)NCc1cc2ccccc2nc1Cl (configuration not stated) | 17 |  |
| COc1ccccc1CN1CC1COc1cccc2cnccc12 (configuration not stated) | 5.29 | selectivity ratio [2]: 9.88; Ratio IC50 [3]: 1.6; IC50 (CHO): 52.3 µM; IC50 (Plasmodium falciparum [4]): 8.46 µM |
| COCC(COc1cccc2cnccc12)NCc1ccccc1OC (configuration not stated) | > 28.4 |  |
| Cn1nc(C(F)(F)F)cc1OCC(CO)NCc1cnc2ccccc2c1 (configuration not stated) | 4.73 | selectivity ratio [2]: 38.3; IC50 (CHO): 181 µM; IC50 (Plasmodium falciparum [4]): 15.2 µM |
| COc1ccc(CN2CC2COc2cccc3cnccc23)cc1 (configuration not stated) | 9.99 |  |
| CC[C@H]1CN2CCc3cc(OC)c(OC)cc3[C@@H]2C[C@@H]1C[C@H]1NCCc2cc(OC)c(OC)cc21 [EMETINE] |  | IC50 (CHO): 0.4 µM |
| O=c1c(Cl)c(Cl)cnn1CC1CN1Cc1cnc2ccccc2c1 (configuration not stated) | 12.7 |  |
| O=c1c(Cl)c(Cl)cnn1CC1CN1Cc1ccnc2ccccc12 (configuration not stated) | 26.9 |  |
| C[C@H]1[C@H](OC(=O)CCC(=O)O)O[C@@H]2O[C@@]3(C)CC[C@H]4[C@H](C)CC[C@@H]1[C@@]24OO3 [ARTESUNATE] | 0.02 |  |
| OCC(COc1cccc2cnccc12)NCc1ccccc1 (configuration not stated) | 6.81 | selectivity ratio [2]: 21.8; Ratio IC50 [3]: 2.58; IC50 (CHO): 148 µM; IC50 (Plasmodium falciparum [4]): 17.6 µM |
| FC(F)(F)c1ccc(CN2CC2COc2cccc3cnccc23)cc1 (configuration not stated) | > 27.9 |  |
| Cn1nc(C(F)(F)F)cc1OCC1CN1Cc1cnc2ccccc2c1 (configuration not stated) | > 27.6 |  |
| COCC(COc1cccc2cnccc12)NCc1ccccc1 (configuration not stated) | 13 |  |

| SMILES | IC50 (Plasmodium falciparum [1]) [µM] | also measured |
| --- | --- | --- |
| Cn1nc(C(F)(F)F)cc1OCC1CN1Cc1ccnc2ccccc12 (configuration not stated) | 9.66 |  |
| O=c1nc(C(F)(F)F)ccn1CC1CN1Cc1cc2ccccc2nc1Cl (configuration not stated) | 9.12 |  |
| BrC(COc1cccc2c[n+](Cc3ccccc3)ccc12)CN(Cc1ccccc1)Cc1ccccc1.[Br-] (configuration not stated) | 0.22 | selectivity ratio [2]: 205; Ratio IC50 [3]: 5.32; IC50 (CHO): 45.1 µM; IC50 (Plasmodium falciparum [4]): 1.17 µM |
| O=c1c(Cl)c(Cl)cnn1CC(CO)NCc1ccnc2ccccc12 (configuration not stated) | 24.5 |  |
| Cn1nc(C(F)(F)F)cc1OCC(CO)NCc1cc2ccccc2nc1Cl (configuration not stated) | > 24.1 |  |
| OCC(COc1cccc2cnccc12)NCc1ccc(C(F)(F)F)cc1 (configuration not stated) | 11.7 |  |
| OCC(COc1cccc2cnccc12)NCc1ccc(Cl)cc1 (configuration not stated) | 22.8 |  |
| Fc1ccc(CN2CC2COc2cccc3cnccc23)cc1 (configuration not stated) | 15.9 |  |
| c1ccc(CNC(CNc2ccccc2)COc2cccc3cnccc23)cc1 (configuration not stated) | 4.69 | selectivity ratio [2]: 50.5; Ratio IC50 [3]: 1.75; IC50 (CHO): 237 µM; IC50 (Plasmodium falciparum [4]): 8.21 µM |
| c1ccc(CN2CC2COc2cccc3cnccc23)cc1 (configuration not stated) | 9.99 |  |
| O=c1c(Cl)c(Cl)cnn1CC(CO)NCc1cc2ccccc2nc1Cl (configuration not stated) | 15 |  |
| [Br-].c1ccc(CN2CC2COc2cccc3c[n+](Cc4ccccc4)ccc23)cc1 (configuration not stated) | 1.09 | selectivity ratio [2]: 47.7; Ratio IC50 [3]: 0.94; IC50 (CHO): 51.8 µM; IC50 (Plasmodium falciparum [4]): 1.02 µM |
| Cn1nc(C(F)(F)F)cc1OCC1CN1Cc1cc2ccccc2nc1Cl (configuration not stated) | > 25.2 |  |
| COCC(COc1cccc2cnccc12)NCc1ccccc1Cl (configuration not stated) | 16.5 |  |
| Clc1ccc(CN2CC2COc2cccc3cnccc23)cc1 (configuration not stated) | > 30.8 |  |
| COCC(Cn1ncc(Cl)c(Cl)c1=O)NCc1ccnc2ccccc12 (configuration not stated) | 14.5 |  |
| COCC(COc1cccc2cnccc12)NCc1ccc(OC)cc1 (configuration not stated) | > 28.4 |  |
| Clc1ccccc1CN1CC1COc1cccc2cnccc12 (configuration not stated) | 12.9 |  |
| Clc1ccc(CN2CC2COc2cccc3cnccc23)c(Cl)c1 (configuration not stated) | > 27.8 |  |

— ChEMBL document CHEMBL3217689, “Synthesis and antiplasmodial evaluation of aziridine(iso)quinoline hybrids and their ring-opening products” (Medchemcomm, 2013)
